# In patent US11078184B2, “Dexrabeprazole sodium compound and pharmaceutical composition thereof” (JIANGSU AOSAIKANG PHARMACEUTICAL CO., LTD., priority 2017, dated 2021):
# Assays:
# [1] = High temperature / grinding test, change of crystal form by XRPD; type: physicochemical; settings: high temperature, XRPD; sodium salt
# From the text: Crystal forms A and C of dexrabeprazole sodium were placed under different conditions as listed in Table 5 below, and sampled for XRPD detection to investigate the change of crystal forms.
# [2] = Determination of hygroscopic moisture; type: physicochemical; settings: 25° C. thermostatic drier over saturated ammonium chloride solution, sodium salt
# Method: Determination of hygroscopic moisture: 25±+1° C. Thermostatic Drier (with a saturated solution of ammonium chloride being placed at bottom of the drier).
# [3] = Test of influence factors (stability: appearance and relevant materials by HPLC); type: physicochemical
# Method: Chromatographic conditions of relevant materials: Chromatographic column: charged with octadecylsilane bonded silica as a filler (Agilent ZORBAX Extend C18, 250×4.6 mm, […]); Mobile phase A: 0.025 mol/L of phosphate solution (the pH of 0.025 mol/L of dipotassium phosphate solution was adjusted to 7.2 with phosphoric acid)-acetonitrile (95:5); Mobile phase B: methanol; Mobile phase C: acetonitrile; A linear gradient elution is carried out in accordance with the following table. Detection wavelength: 280 nm, 220 nm (for impurity H) Flowrate: 1.0 ml/min Column temperature: 25° C. Sample size: 5 μl Diluent: the pH of 0.1 mol/L of dipotassium phosphate solution was adjusted to 11.3 with 2 mol/L potassium hydroxide solution-methanol (45:55). Crystal forms A, B, and C (each 100 mg) were placed under different conditions, and sampled at Days 0, 10, 20, and 30 for detecting their characters and relevant materials, respectively.
# [4] = Test of suspension equilibrium (XRPD); settings: suspension in acetonitrile
# Method: XRPD test (FIGS. 10 & 12-14, Modern Analysis Center, Nanjing University): Instrument model: Thermo Co., Ltd., X'TRA Type X Diffractometer, target: Cu (40 kV, 40 mA), scanning range: 2°-40° (2θvalue), scanning step length: 0.02, scanning speed: 5
# The mixture was stirred, together with 10 ml of a solvent at 35° C. and under nitrogen atmosphere, and then sampled for XRPD detection.
# [5] = High humidity, RH75 ± 5%, Day 0, sodium salt
# [6] = High humidity, RH75 ± 5%, Day 10, sodium salt
# [7] = High humidity, RH75 ± 5%, Day 20, sodium salt
# [8] = High humidity, RH75 ± 5%, Day 30, sodium salt
# [9] = High temperature, 40° C., Day 0, sodium salt
# [10] = High temperature, 40° C., Day 10, sodium salt
# [11] = High temperature, 40° C., Day 20, sodium salt
# [12] = High temperature, 40° C., Day 30, sodium salt
# [13] = Light exposure, 4500 ± 500 Lx, Day 0, sodium salt
# [14] = Light exposure, 4500 ± 500 Lx, Day 10, sodium salt
# [15] = Light exposure, 4500 ± 500 Lx, Day 20, sodium salt
# [16] = Light exposure, 4500 ± 500 Lx, Day 30, sodium salt
compound,measurement,setting,value
"COCCCOc1ccnc(C[S@@+]([O-])c2nc3ccccc3[n-]2)c1C.[Na+] [Crystal form C, R-(+)-2-{[4-(3-methoxypropoxy)-3-methylpyrid-2-yl]methylsulfinyl}-1H-benzimidazole sodium salt]",Stability of the crystal form at a high temperature,[1],keeps stable at a high temperature without crystal transformation
same,Hygroscopic moisture (%),[2]; 0 h,0.11%
same,Hygroscopic moisture (%),[2]; 24 h,0.15%
same,Hygroscopic moisture (%),[2]; 48 h,0.18%
same,Appearance character,"[3]; High humidity, RH75 ± 5%, Day 0",Off-white
same,Relevant materials: Maximum individual impurity (%),[3]; [5],0.032%
same,Relevant materials: Total impurity (%),[3]; [5],0.085%
same,Appearance character,[3]; [6],Off-white
same,Relevant materials: Maximum individual impurity (%),[3]; [6],0.027%
same,Relevant materials: Total impurity (%),[3]; [6],0.094%
same,Appearance character,[3]; [7],Off-white
same,Relevant materials: Maximum individual impurity (%),[3]; [7],0.015%
same,Relevant materials: Total impurity (%),[3]; [7],0.166%
same,Appearance character,[3]; [8],Off-white
same,Relevant materials: Maximum individual impurity (%),[3]; [8],0.292%
same,Relevant materials: Total impurity (%),[3]; [8],0.491%
same,Appearance character,"[3]; High temperature, 40° C., Day 0",Off-white
same,Relevant materials: Maximum individual impurity (%),[3]; [9],0.032%
same,Relevant materials: Total impurity (%),[3]; [9],0.085%
same,Appearance character,"[3]; High temperature, 40° C., Day 10",Off-white
same,Relevant materials: Maximum individual impurity (%),[3]; [10],0.030%
same,Relevant materials: Total impurity (%),[3]; [10],0.093%
same,Appearance character,"[3]; High temperature, 40° C., Day 20",Off-white
same,Relevant materials: Maximum individual impurity (%),[3]; [11],0.028%
same,Relevant materials: Total impurity (%),[3]; [11],0.117%
same,Appearance character,"[3]; High temperature, 40° C., Day 30",Off-white
same,Relevant materials: Maximum individual impurity (%),[3]; [12],0.024%
same,Relevant materials: Total impurity (%),[3]; [12],0.136%
same,Appearance character,"[3]; Light exposure, 4500 ± 500 Lx, Day 0",Off-white
same,Relevant materials: Maximum individual impurity (%),[3]; [13],0.032%
same,Relevant materials: Total impurity (%),[3]; [13],0.085%
same,Appearance character,"[3]; Light exposure, 4500 ± 500 Lx, Day 10",Off-white
same,Relevant materials: Maximum individual impurity (%),[3]; [14],0.088%
same,Relevant materials: Total impurity (%),[3]; [14],0.112%
same,Appearance character,"[3]; Light exposure, 4500 ± 500 Lx, Day 20",Off-white
same,Relevant materials: Maximum individual impurity (%),[3]; [15],0.094%
same,Relevant materials: Total impurity (%),[3]; [15],0.245%
same,Appearance character,"[3]; Light exposure, 4500 ± 500 Lx, Day 30",Off-white
same,Relevant materials: Maximum individual impurity (%),[3]; [16],0.113%
same,Relevant materials: Total impurity (%),[3]; [16],0.344%
same,Stability compared with crystal form A,[3]; high temperature and high humidity,better than that of crystal form A
same,Stability compared with crystal form A,[3]; light exposure,comparable to that of crystal form A
same,Stability of the crystal form in suspension equilibrium,[4],better stability than amorphous form and crystal form A
